The assay has as its system hair cells. The assay is described as follows: Hair cell toxicity assay in zebrafish (neomycin-induced hair cell death, DASPEI staining of neuromasts). Format: in vivo. To be noted: Danio rerio; for Emax at 25 µM: maximum observed @ 25 μM test compound; for EC50: zebrafish larvae 5-7 dpf, 1 h pre-treatment, then 200 micromolar neomycin + test compound 30 min, read-out: HC50 (concentration that would produce 50% hair cell survival); for Emax at 8.3 µM: maximum observed @ 8.3 μM test compound. In short, it runs like this:
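Hair cell survival, as % of untreated controls, came from DASPEI scoring (0-2 each, ten neuromasts on one side) in 5-7 dpf larvae. These had 1 h compound pre-exposure (0.010-25 μM), then 200 μM neomycin with compound for 30 min. HCmax is peak protection; HC50 interpolated between flanking concentrations only when ≥50% survive.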

The mark [1] stands for this setting: 200 micromolar neomycin, read-out: Max HC Protection (HCmax, % hair cell survival).

Where a name gives a salt, the structure may show the parent alone. Where only a bound is given, the exact number is not on record here.

With `CCN1CCc2c(sc(NC(=O)NC3CCCCC3)c2C(N)=O)C1` [Example 68, 2-(3-Cyclohexylureido)-6-ethyl-4,5,6,7-tetrahydrothieno[2,3-c]pyridine-3-carboxamide hydrochloride], the Emax at 25 µM under setting [1] stood at 5%. In the case of `CCN1CCc2c(sc(NC(=O)Nc3cccnc3)c2C(N)=O)C1` [Example 69, 6-Ethyl-2-[3-(pyridin-3-yl)ureido]-4,5,6,7-tetrahydrothieno[2,3-c]pyridine-3-carboxamide dihydrochloride], the Emax at 25 µM under setting [1] was 12%. `CCN1CCc2c(sc(NC(=O)Nc3ccc(F)c(F)c3)c2C(N)=O)C1` [Example 70, 2-[3-(3,4-Difluorophenyl)ureido]-6-ethyl-4,5,6,7-tetrahydrothieno[2,3-c]pyridine-3-carboxamide hydrochloride]: the EC50 was in the range of 1 to 10 µM. In addition, the Emax at 25 µM under setting [1] came to 64%. For the molecule `CCN1CCc2c(sc(NC(=O)Nc3cccc(F)c3)c2C(N)=O)C1` [Example 71, 6-Ethyl-2-[3-(3-fluorophenyl)ureido]-4,5,6,7-tetrahydrothieno[2,3-c]pyridine-3-carboxamide hydrochloride], under setting [1], the Emax at 25 µM was determined as 45%. `CCN1CCc2c(sc(NC(=O)Nc3cccc(C#N)c3)c2C(N)=O)C1` [Example 73, 2-[3-(3-Cyanophenyl)ureido]-6-ethyl-4,5,6,7-tetrahydrothieno[2,3-c]pyridine-3-carboxamide hydrochloride]: the EC50 was more than 10 µM. The Emax at 25 µM under setting [1] turned out to be 51%. On to `CCN1CCc2c(sc(NC(=O)Nc3cccc(Cl)c3Cl)c2C(N)=O)C1` [Example 74, 2-[3-(2,3-Dichlorophenyl)ureido]-6-ethyl-4,5,6,7-tetrahydrothieno[2,3-c]pyridine-3-carboxamide hydrochloride], for which the EC50 is more than 10 µM. Further, under setting [1], the Emax at 25 µM came out at 54%. In the case of `CCN1CCc2c(sc(NC(=O)NCc3cccc(Cl)c3)c2C(N)=O)C1` [Example 75, 2-[3-(3-Chlorobenzyl)ureido]-6-ethyl-4,5,6,7-tetrahydrothieno[2,3-c]pyridine-3-carboxamide hydrochloride], the Emax at 25 µM under setting [1] came out at 24%. `CCN1CCc2c(sc(NC(=O)NCc3ccc(Cl)cc3)c2C(N)=O)C1` [Example 76, 2-[3-(4-Chlorobenzyl)ureido]-6-ethyl-4,5,6,7-tetrahydrothieno[2,3-c]pyridine-3-carboxamide hydrochloride]: the Emax at 25 µM under setting [1] is 40%. For the molecule `CCN1CCc2c(sc(NC(=O)Nc3cncc(Cl)c3)c2C(N)=O)C1` [Example 77, 2-[3-(5-Chloropyridin-3-yl)ureido]-6-ethyl-4,5,6,7-tetrahydrothieno[2,3-c]pyridine-3-carboxamide dihydrochloride], the Emax at 25 µM under setting [1] worked out at 45%.

As to `CCN1CCc2c(sc(NC(=O)Nc3cnc4ccccc4c3)c2C(N)=O)C1` [Example 78, 6-Ethyl-2-[3-(quinolin-3-yl)ureido]-4,5,6,7-tetrahydrothieno[2,3-c]pyridine-3-carboxamide dihydrochloride], the EC50 is more than 10 µM. Also, the Emax at 25 µM under setting [1] was found to be 52%. With `CCN1CCc2c(sc(NC(=O)Nc3ccc4ncccc4c3)c2C(N)=O)C1` [Example 79, 6-Ethyl-2-[3-(quinolin-6-yl)ureido]-4,5,6,7-tetrahydrothieno[2,3-c]pyridine-3-carboxamide dihydrochloride], the Emax at 0.3 µM (maximum observed @ 0.3 μM test compound, 200 micromolar neomycin, read-out: Max HC Protection (HCmax, % hair cell survival)) was 34%. Regarding `CCN1CCc2c(sc(NC(=O)Nc3cccc4nsnc34)c2C(N)=O)C1` [Example 80, 2-[3-(Benzo[c][1,2,5]thiadiazol-4-yl)ureido]-6-ethyl-4,5,6,7-tetrahydrothieno[2,3-c]pyridine-3-carboxamide hydrochloride], the Emax at 8.3 µM under setting [1] was 36%. For the molecule `CCN1CCc2c(sc(NC(=O)Nc3cncc4ccccc34)c2C(N)=O)C1` [Example 81, 6-Ethyl-2-[3-(isoquinolin-4-yl)ureido]-4,5,6,7-tetrahydrothieno[2,3-c]pyridine-3-carboxamide dihydrochloride], the Emax at 8.3 µM under setting [1] is 32%. Consider `CCN1CCc2c(sc(NC(=O)Nc3cn(C)c4ccccc34)c2C(N)=O)C1` [Example 82, 6-Ethyl-2-[3-(1-methyl-1H-indol-3-yl)ureido]-4,5,6,7-tetrahydrothieno[2,3-c]pyridine-3-carboxamide hydrochloride], for which the Emax at 25 µM under setting [1] came out at 23%.

For `CCN1CCc2c(sc(NC(=O)Nc3ccc(C)c(Cl)c3)c2C(N)=O)C1` [Example 83, 2-[3-(3-Chloro-4-methylphenyl)ureido]-6-ethyl-4,5,6,7-tetrahydrothieno[2,3-c]pyridine-3-carboxamide hydrochloride], the EC50 fell in the range of 1 to 10 µM. In addition, the Emax at 25 µM under setting [1] turned out to be 63%. For the molecule `CCN1CCc2c(sc(NC(=O)Nc3cccc4c3ccn4C)c2C(N)=O)C1` [Example 84, 6-Ethyl-2-[3-(1-methyl-1H-indol-4-yl)ureido]-4,5,6,7-tetrahydrothieno[2,3-c]pyridine-3-carboxamide hydrochloride], the Emax at 25 µM under setting [1] is 4%.

For the molecule `CCN1CCc2c(sc(NC(=O)Nc3ccc4c(c3)OC(F)(F)O4)c2C(N)=O)C1` [Example 85, 2-[3-(2,2-Difluorobenzo[d][1,3]dioxol-5-yl)ureido]-6-ethyl-4,5,6,7-tetrahydrothieno[2,3-c]pyridine-3-carboxamide hydrochloride], the EC50 fell in the range of 1 to 10 µM. In addition, the Emax at 25 µM under setting [1] stood at 63%. In the case of `Cc1c(CN2CCOCC2)sc(NC(=O)Nc2ccc(Cl)cc2)c1C(N)=O` [Example 86, 2-[3-(4-Chlorophenyl)ureido]-4-methyl-5-(morpholinomethyl)thiophene-3-carboxamide hydrochloride], the EC50 lay within 1 to 10 µM. The Emax at 8.3 µM under setting [1] was 51%. Consider `CCN1CCc2c(sc(NC(=O)Nc3ccc(Cl)cc3)c2C#N)C1` [Example 87, 1-(4-Chlorophenyl)-3-(3-cyano-6-ethyl-4,5,6,7-tetrahydrothieno[2,3-c]pyridin-2-yl)urea], for which, under setting [1], the Emax at 25 µM amounted to 11%.

As to `CCN1CCc2c(sc(NC(=O)Nc3ccc(C(=O)c4ccccc4)cc3)c2C(N)=O)C1` [Example 88, 2-[3-(4-Benzoylphenyl)ureido]-6-ethyl-4,5,6,7-tetrahydrothieno[2,3-c]pyridine-3-carboxamide], the EC50 was in the range of 1 to 10 µM. Also, the Emax at 25 µM under setting [1] is 88%. As for `NC(=O)c1c(NC(=O)Nc2ccc(Cl)cc2)sc2c1CCN(CC(F)(F)F)C2` [Example 89, 2-[3-(4-Chlorophenyl)ureido]-6-(2,2,2-trifluoroethyl)-4,5,6,7-tetrahydrothieno[2,3-c]pyridine-3-carboxamide], under setting [1], the Emax at 8.3 µM turned out to be 18%. In the case of `CC1(C)Cc2c(sc(NC(=O)Nc3ccc(Cl)cc3)c2C(N)=O)C(C)(C)N1` [Example 90, 2-[3-(4-Chlorophenyl)ureido]-5,5,7,7-tetramethyl-4,5,6,7-tetrahydrothieno[2,3-c]pyridine-3-carboxamide hydrochloride], the EC50 lay in the range of 1 to 10 µM. The Emax at 8.3 µM under setting [1] is 99%. On to `NC(=O)c1c(NC(=O)Nc2ccc(Cl)cc2)sc2c1CCC(=O)C2` [Example 91, 2-[3-(4-Chlorophenyl)ureido]-6-oxo-4,5,6,7-tetrahydrobenzo[b]thiophene-3-carboxamide], for which the Emax at 0.9 µM (maximum observed @ 0.9 μM test compound, 200 micromolar neomycin, read-out: Max HC Protection (HCmax, % hair cell survival)) came out at 15%. As to `NC(=O)c1c(NC(=O)Nc2ccc(Cl)cc2)sc2c1CCOC2` [Example 92, 2-[3-(4-Chlorophenyl)ureido]-5,7-dihydro-4H-thieno[2,3-c]pyran-3-carboxamide], the Emax at 2.8 µM (maximum observed @ 2.8 μM test compound, 200 micromolar neomycin, read-out: Max HC Protection (HCmax, % hair cell survival)) is 22%.

As for `CCN1CCc2c(sc(NC(=O)Nc3ccc4cc(F)ccc4c3)c2C(N)=O)C1` [Example 93, 6-ethyl-2-[3-(6-fluoronaphthalen-2-yl)ureido]-4,5,6,7-tetrahydrothieno[2,3-c]pyridine-3-carboxamide hydrochloride], the EC50 was 1 to 10 µM. For the same molecule, under setting [1], the Emax at 25 µM is 97%. As to `CCN1CCc2c(sc(NC(=O)Nc3ccc(Cl)s3)c2C(N)=O)C1` [Example 94, 2-[3-(5-Chlorothiophen-2-yl)ureido]-6-ethyl-4,5,6,7-tetrahydrothieno[2,3-c]pyridine-3-carboxamide hydrochloride], the EC50 was more than 10 µM. The Emax at 25 µM under setting [1] turned out to be 69%. As to `CCN1CCc2c(sc(NC(=O)Nc3ccc(Cl)cc3)c2C(=O)N2CCOCC2)C1` [Example 95, 1-(4-chlorophenyl)-3-[6-ethyl-3-(morpholine-4-carbonyl)-4,5,6,7-tetrahydrothieno[2,3-c]pyridin-2-yl]urea hydrochloride], the EC50 is 1 to 10 µM. Also, the Emax at 25 µM under setting [1] was determined as 78%. In the case of `CCN1CCc2c(sc(NC(=O)Nc3ccc(Cl)cc3)c2C(=O)NCC(F)(F)F)C1` [Example 96, 2-[3-(4-Chlorophenyl)ureido]-6-ethyl-N-(2,2,2-trifluoroethyl)-4,5,6,7-tetrahydrothieno[2,3-c]pyridine-3-carboxamide hydrochloride], the EC50 lay in the range of 1 to 10 µM. Moreover, the Emax at 8.3 µM under setting [1] was 57%.

Take `CCN1CCc2c(sc(NC(=O)Nc3ccc(Cl)cc3)c2C(=O)NCC2CC2)C1` [Example 97, 2-[3-(4-Chlorophenyl)ureido]-N-(cyclopropylmethyl)-6-ethyl-4,5,6,7-tetrahydrothieno[2,3-c]pyridine-3-carboxamide hydrochloride]: the Emax at 8.3 µM under setting [1] was 37%. Turning to `CCN1CCc2c(sc(NC(=O)Nc3ccc(Cl)cc3)c2C(=O)NCc2cccnc2)C1` [Example 98, 2-[3-(4-Chlorophenyl)ureido]-6-ethyl-N-(pyridin-3-ylmethyl)-4,5,6,7-tetrahydrothieno[2,3-c]pyridine-3-carboxamide dihydrochloride], the EC50 is more than 10 µM. The Emax at 25 µM under setting [1] amounted to 52%.

(Values after patent publication US9416141B2 (University of Washington through its Center for …, priority 2012, dated 2016).)
